Experiments:
[1] = in vivo; settings: dog
[2] = dog, in vivo, 480 min

- Tmax ([1]; iv): 0.05 h
- Cmax ([1]; po): 3 ng/mL
- Tmax ([1]; po): 2 h
- bioavailability at 8 h ([1]; po): 4%
- AUC/IV-AUC [2]: 1.00
Compound: CC(C)NCC(O)COc1cccc2ccccc12 (centres unmarked) [Propranolol, propranolol]
